Experimental findings from ChEMBL document CHEMBL5532700, “Inhibition of bacterial RNA polymerase function and protein-protein interactions: a promising approach for next-generation antibacterial therapeutics” (RSC Med Chem, 2024) are described below.

Assay [1] can be described thus: Inhibition of NusB-NusE (unknown origin) protein protein interaction. The arrangement: species or system Bacteria.
Assay [2] deals with Staphylococcus aureus. As to the kind of experiment: Antibacterial activity against vancomycin-resistant Staphylococcus aureus. The class given is functional.
For assay [3], the system named is Staphylococcus aureus. In words: Antibacterial activity against methicillin-resistant Staphylococcus aureus. Type of assay: functional.
The subject of assay [4] is Staphylococcus aureus. As to the kind of experiment: Antibacterial activity against Staphylococcus aureus. The class given is functional.
Assay [5] deals with Moraxella catarrhalis. In words: Antibacterial activity against Moraxella catarrhalis. The class given is functional.
Assay [6] is described as follows: Inhibition of poly(C) dependent Escherichia coli DW319 Rho ATPase activity.
Assay [7] deals with Neisseria gonorrhoeae. As to the kind of experiment: Antibacterial activity against Neisseria gonorrhoeae. Type of assay: functional.
Assay [8] concerns Bacillus anthracis. As to the kind of experiment: Antibacterial activity against Bacillus anthracis 9131 measured after 24 hrs by broth microdilution method. Type of assay: functional.
Assay [9] relates to Streptococcus pneumoniae. As to the kind of experiment: Antibacterial activity against Streptococcus pneumoniae CIP103566 measured after 24 hrs by broth microdilution method. Type of assay: functional. A general note: Broth dilution looks for growth in wells or tubes with falling amounts of substance.
Assay [10] in a line: Inhibition of Escherichia coli RNA polymerase/sigma factor 70 (unknown origin) protein-protein interaction incubated for 30 mins by ELISA. A general note: In an ELISA, binding on a coated surface is turned into a signal by an enzyme label.
In assay [11] the test system is Bacteroides sp. In words: Antibacterial activity against Bacteroides sp. measured after 24 hrs by broth microdilution method. Type of assay: functional.
Assay [12] can be described thus: Inhibition of ribo(C)10 stimulated Escherichia coli AR120 Rho ATPase activity preincubated for 2 mins in absence of ribo(C)10 followed by ATP addition and measured for 90 sec by [gamma-32P]ATP based liquid scintillation counting method.
The nature of assay [13]: Inhibition of ribo(C)10 stimulated Escherichia coli AR120 Rho ATPase activity preincubated for 2 mins in presence of ribo(C)10 followed by ATP addition and measured for 90 sec by [gamma-32P]ATP based liquid scintillation counting method.
Assay [14] is described as follows: Binding affinity to NusB (unknown origin) assessed as dissociation constant. Set-up: species or system Bacteria.
The subject of assay [15] is Streptococcus pneumoniae. As to the kind of experiment: Antibacterial activity against Streptococcus pneumoniae assessed as reduction in bacterial growth incubated for 16 to 20 hrs by broth microdilution method. The class given is functional. As to conditions: time 16-20 hrs.
Assay [16] concerns Bacillus subtilis. As to the kind of experiment: Antibacterial activity against Bacillus subtilis EU168 measured after 18 hrs. The class given is functional.
The test system of assay [17] is Staphylococcus aureus. In words: Antibacterial activity against community-acquired methicillin-resistant Staphylococcus aureus USA300 measured after 18 hrs. The class given is functional.
Assay [18] relates to Bacteria. As to the kind of experiment: Inhibition of bacterial RNA polymerase holoenzyme formation assessed as inhibition of interaction between beta subunit CH domain and sigma factor at 500 uM relative to control.
Assay [19] concerns Bacillus subtilis. In words: Antibacterial activity against Bacillus subtilis assessed as inhibition of bacterial growth at 200 uM incubated for 10 sec under shaking condition relative to control. Type of assay: functional. The conditions noted are these: 10 s.
In assay [20] the test system is Escherichia coli. As to the kind of experiment: Antibacterial activity against Escherichia coli assessed as inhibition of bacterial growth at 200 uM incubated for 10 sec under shaking condition relative to control. Type of assay: functional. As to conditions: 10 s.
A short description of assay [21]: Inhibition of Bacillus subtilis N-terminal SmBiT NanoLuc/C-terminal LgBiT NanoLuc fused full-length SigA tagged RNA polymerase beta subunit CH-domain (220 to 315 residues)/sigma factor (unknown origin) protein-protein interaction by split luciferase assay.

In brackets after ≈: the same amount, converted by molar mass.

Usually IC50 stands for the concentration that gives 50% inhibition. A lower IC50 goes with inhibition by little substance. The term MIC denotes the lowest concentration found to suppress growth. For orientation: Ki means a dissociation constant, usually derived from enzyme kinetics or from competition with a known ligand. Usually Kd stands for a measure of binding affinity in units of concentration. What is called inhibition is how much of the control response was suppressed.

The compound `COc1ccc(-c2cc(-c3ccc(OC)c(OC)c3)nc(NS(=O)(=O)c3ccc(NC(C)=O)cc3)n2)c(OC)c1` registered an IC50 in [1] of 6.1 µM.

For `C#Cc1cccc(NCc2cc([N+](=O)[O-])cc(Br)c2O)c1`, the MIC in assay [2] and in assay [3] was 0.25 µg/mL (≈ 0.72 µM) throughout.

`O=[N+]([O-])c1ccc(O)c(/C=N/c2cccc(Cl)c2)c1`: the MIC worked out at 0.25 µg/mL (≈ 0.904 µM) in assay [2], 0.25 µg/mL (≈ 0.904 µM) in assay [3] and 2 µg/mL (≈ 7.23 µM) in [4].

For the compound `COc1cccc(/C=C/c2cc(O)ccc2[N+](=O)[O-])c1`, the MIC in [2] came out at 0.25 µg/mL (≈ 0.922 µM); in assay [3], 0.25 µg/mL (≈ 0.922 µM); in [4], 2 µg/mL (≈ 7.37 µM).

As for `O=[N+]([O-])c1ccc(O)c(CNc2ccccc2C#Cc2ccccc2)c1`, the MIC in assay [2], in [3] and in assay [4] was 0.25 µg/mL (≈ 0.726 µM) each time.

As for `CC(C)(C)c1ccccc1NCc1cc([N+](=O)[O-])ccc1O`, the MIC in assay [2] was 0.25 µg/mL (≈ 0.832 µM); in [3], 0.25 µg/mL (≈ 0.832 µM); in assay [4] it was 1 µg/mL (≈ 3.33 µM).

As for `O=C1N(Cc2ccccc2)CCC1(CCN1CCC(Nc2nc3ccccc3n2Cc2ccc(F)cc2)CC1)Cc1ccccc1` (centres undefined), the MIC in assay [5] and in assay [7] was 2.5 µM (≈ 1.54 µg/mL) each time. In [6], this compound registered an IC50 of 25 µM.

With `C=CCN1C(=O)/C(=C\c2ccc(-c3cccc(C(=O)O)c3)o2)SC1=S`, the figures for the MIC in [8], in assay [9] and in assay [11] were 0.1 µg/mL (≈ 0.269 µM), 2 µg/mL (≈ 5.38 µM) and 1 µg/mL (≈ 2.69 µM), respectively. 2 µM corresponded to half-maximal inhibition in assay [10] (IC50).

For the compound `C=C1CCO[C@]2([C@@H](O)[C@@](C)(O)CO)NC(=O)[C@@]1(O)NC2=O` [BICOZAMYCIN], the Ki was 26 µM in assay [12] and 2.8 µM in assay [13].

For `C#Cc1cccc(/N=C/c2cc([N+](=O)[O-])ccc2O)c1`, the Kd in assay [14] is roughly 1.5 µM. For the same compound, the IC50 in assay [1] is roughly 35 µM. Inhibition of growth in [4] (MIC) required 8 µg/mL (≈ 30 µM).

`C=CCN1C(=O)/C(=C/c2cc(C)n(-c3cccc(C(=O)O)c3)c2C)SC1=S` gave an IC50 in [10] of 1.8 µM.

Take `O=C(O)c1ccccc1C(=O)c1ccc(Sc2ccc(Cl)c(Cl)c2)c([N+](=O)[O-])c1`: in assay [15], the MIC worked out at 8 µg/mL (≈ 17.8 µM).

On to `C[C@]12CC[C@@H](O)CC1CCC1C2CC[C@](C)(C(=O)O)C1/C=C1/Nc2ccccc2C1=O` (some centres undefined), for which the results for the MIC in [16] and in assay [17] were no more than 50 µM and roughly 100 µM (≈ 42.4 µg/mL), respectively. Also, in assay [18], the inhibition is 80%.

With `N=C(N)N/N=C/c1ccc(OC/C=C\COc2ccc(/C=N/NC(=N)N)cc2)cc1`, the inhibition at 200 µM in assay [19] and in [20] was 100% in each case.

`CCNC(=O)Nc1ccc(OCCCCOc2ccc(NC(=O)NCC)cc2)cc1` yielded an IC50 in assay [1] of 19.8 µM.

`Nc1ccccc1Sc1ccc(C(=O)c2ccccc2C(=O)O)cc1[N+](=O)[O-]`: in assay [15], the MIC came to 256 µg/mL (≈ 649 µM). In assay [21], this compound gave an IC50 of 6.4 µM. Further, the inhibition in [18] was found to be 80%.

`CN1C(=O)/C(=C\c2ccc(-c3cccc(C(=O)O)c3)o2)SC1=S` had an IC50 in assay [10] of 3 µM.
